Data as given in the NIST ThermoML archive (doi:10.1021/acs.jced.7b00106).

Conditions: Liquid, Hot wire method

FC(F)(F)/C=C/Cl [(E)-1-chloro-3,3,3-trifluoroprop-1-ene]
Conditions | thermal conductivity [W/m/K]
242.05 K, 36072 kPa | 0.1119
242.06 K, 13440 kPa | 0.1056
242.08 K, 7089 kPa | 0.1037
242.09 K, 28062 kPa | 0.1106
242.11 K, 583 kPa | 0.101
242.13 K, 20421 kPa | 0.1074
242.18 K, 13439 kPa | 0.105
242.22 K, 7107 kPa | 0.1031
242.24 K, 585 kPa | 0.1007
242.32 K, 63843 kPa | 0.1195
242.33 K, 53263 kPa | 0.1172
242.34 K, 36064 kPa | 0.112
242.34 K, 43841 kPa | 0.1149
242.41 K, 28063 kPa | 0.1093
242.45 K, 20418 kPa | 0.1078
242.46 K, 53261 kPa | 0.1167
242.46 K, 63839 kPa | 0.1194
242.47 K, 43873 kPa | 0.1147
242.49 K, 36067 kPa | 0.1119
242.5 K, 13437 kPa | 0.1053
242.54 K, 7100 kPa | 0.1033
242.55 K, 28067 kPa | 0.11
242.56 K, 597 kPa | 0.101
242.59 K, 20435 kPa | 0.1072
242.65 K, 13436 kPa | 0.105
242.69 K, 7107 kPa | 0.1029
242.76 K, 53251 kPa | 0.1166
242.76 K, 63833 kPa | 0.1199
242.79 K, 43839 kPa | 0.115
242.81 K, 36066 kPa | 0.1121
242.88 K, 28066 kPa | 0.1102
242.91 K, 63824 kPa | 0.1193
242.93 K, 20434 kPa | 0.1075
242.93 K, 53255 kPa | 0.1164
242.96 K, 43854 kPa | 0.1143
242.98 K, 36047 kPa | 0.1118
242.99 K, 13448 kPa | 0.1056
243.04 K, 7102 kPa | 0.1029
243.05 K, 28059 kPa | 0.1096
243.08 K, 588 kPa | 0.101
243.11 K, 20431 kPa | 0.1071
243.18 K, 13440 kPa | 0.105
243.22 K, 7112 kPa | 0.1026
243.23 K, 63821 kPa | 0.1197
243.26 K, 584 kPa | 0.1004
243.26 K, 53253 kPa | 0.1164
243.29 K, 43835 kPa | 0.1146
243.3 K, 36069 kPa | 0.1121
243.4 K, 28075 kPa | 0.1098
243.42 K, 63814 kPa | 0.1191
243.44 K, 53247 kPa | 0.1163
243.46 K, 20431 kPa | 0.1074
243.49 K, 43850 kPa | 0.114
243.51 K, 36041 kPa | 0.1117
243.53 K, 13443 kPa | 0.1053
243.58 K, 7097 kPa | 0.103
243.6 K, 28066 kPa | 0.1094
243.63 K, 586 kPa | 0.1005
243.66 K, 20425 kPa | 0.107
243.74 K, 63809 kPa | 0.1193
243.78 K, 53242 kPa | 0.1168
243.8 K, 7115 kPa | 0.1027
243.83 K, 43827 kPa | 0.1143
243.85 K, 580 kPa | 0.1001
243.85 K, 36062 kPa | 0.1118
243.96 K, 28066 kPa | 0.1097
243.96 K, 63804 kPa | 0.119
244 K, 53243 kPa | 0.1163
244.02 K, 20445 kPa | 0.1073
244.06 K, 43851 kPa | 0.1139
244.09 K, 36043 kPa | 0.1116
244.19 K, 28067 kPa | 0.1093
244.27 K, 20428 kPa | 0.1068
261.5 K, 276 kPa | 0.09433
261.52 K, 5038 kPa | 0.09629
261.54 K, 10280 kPa | 0.09846
261.55 K, 22296 kPa | 0.1036
261.56 K, 15956 kPa | 0.1002
261.58 K, 270 kPa | 0.09415
261.61 K, 5056 kPa | 0.09622
261.63 K, 10283 kPa | 0.09831
261.64 K, 22292 kPa | 0.1023
261.65 K, 15950 kPa | 0.1003
261.91 K, 36411 kPa | 0.1079
261.91 K, 42842 kPa | 0.1093
261.93 K, 282 kPa | 0.09438
261.93 K, 5041 kPa | 0.09641
261.94 K, 29216 kPa | 0.1051
261.95 K, 22290 kPa | 0.103
261.96 K, 10273 kPa | 0.09851
261.96 K, 15950 kPa | 0.1005
261.97 K, 65297 kPa | 0.1155
262 K, 59186 kPa | 0.115
262.01 K, 36414 kPa | 0.1074
262.01 K, 42847 kPa | 0.1089
262.02 K, 51140 kPa | 0.1116
262.04 K, 270 kPa | 0.094
262.05 K, 29220 kPa | 0.105
262.06 K, 5047 kPa | 0.09593
262.06 K, 10278 kPa | 0.09816
262.06 K, 22290 kPa | 0.1024
262.06 K, 65280 kPa | 0.115
262.08 K, 15930 kPa | 0.1003
262.1 K, 59178 kPa | 0.1128
262.12 K, 51139 kPa | 0.1114
262.33 K, 36413 kPa | 0.1071
262.33 K, 42846 kPa | 0.1091
262.37 K, 65275 kPa | 0.1153
262.38 K, 29224 kPa | 0.1054
262.4 K, 275 kPa | 0.09425
262.4 K, 22288 kPa | 0.1026
262.41 K, 59182 kPa | 0.1141
262.42 K, 5040 kPa | 0.09609
262.42 K, 10267 kPa | 0.09829
262.43 K, 51128 kPa | 0.1115
262.44 K, 15943 kPa | 0.1005
262.46 K, 42848 kPa | 0.1091
262.47 K, 36410 kPa | 0.107
262.5 K, 65252 kPa | 0.115
262.51 K, 29222 kPa | 0.1049
262.53 K, 59166 kPa | 0.1136
262.55 K, 22288 kPa | 0.1025
262.56 K, 273 kPa | 0.09391
262.56 K, 51133 kPa | 0.1113
262.57 K, 5039 kPa | 0.09583
262.57 K, 10288 kPa | 0.09813
262.57 K, 15931 kPa | 0.09995
262.8 K, 42854 kPa | 0.1091
262.81 K, 36411 kPa | 0.107
262.81 K, 65229 kPa | 0.1152
262.86 K, 29224 kPa | 0.105
262.86 K, 59156 kPa | 0.1141
262.89 K, 51121 kPa | 0.1116
262.9 K, 22284 kPa | 0.1027
262.94 K, 280 kPa | 0.094
262.94 K, 10264 kPa | 0.09833
262.94 K, 15933 kPa | 0.1003
262.95 K, 5058 kPa | 0.09606
262.95 K, 42854 kPa | 0.1089
262.96 K, 65209 kPa | 0.115
262.98 K, 36413 kPa | 0.1068
263.01 K, 59151 kPa | 0.1135
263.03 K, 29224 kPa | 0.1045
263.05 K, 51114 kPa | 0.1112
263.06 K, 22282 kPa | 0.1023
